Values quoted from earlier work as cited in patent US20100279989A1, “ORAL CONTRACEPTION WITH TRIMEGESTONE” (GRÜNENTHAL GMBH, priority 2005, published 2010).

Test system: ovulation
Conditions: p.o.

C[C@H](O)C(=O)[C@@]1(C)CC[C@H]2[C@@H]3CCC4=CC(=O)CCC4=C3CC[C@@]21C [trimegestone, 17β-[(S)-2-hydroxypropanoyl]-17α-methyl-estra-4,9-dien-3-one]
ovulation inhibition dose: 0.5 mg per day
